These results are taken from publication PMC7917842, “Chlortetracycline, a Novel Arf Inhibitor That Decreases the Arf6-Dependent Invasive Properties of Breast Cancer Cells” (Molecules, 2021).

For one assay, the target named is T1, Arf6 (Homo sapiens, UniProt P62330).
T1 construct: full-length Arf6, C-terminal hexa-his tag (non myristoylated); also myristoylated Arf6; with EFA6A (exchange factor in the IC50 assay)
The assay can be described thus: mant-GTP loading (FRET) on purified Arf6 with EFA6A and azolectin liposomes; also […]GTPγS binding and tryptophan fluorescence. The assay is classed as biochemical.

For another assay, the target named is T2, Arf1 (Homo sapiens, UniProt P84077).
T2 construct: recombinant myristoylated Arf1 (myrArf1)
T2 sequence (P84077 2-181): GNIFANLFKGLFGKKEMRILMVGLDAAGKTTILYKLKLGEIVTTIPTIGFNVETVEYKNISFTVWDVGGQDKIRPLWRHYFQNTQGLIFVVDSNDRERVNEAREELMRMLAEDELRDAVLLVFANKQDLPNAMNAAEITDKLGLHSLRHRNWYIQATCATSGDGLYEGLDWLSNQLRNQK
The experiment in a line: spontaneous mant-GTP loading on purified myrArf1 with azolectin, […] CTC; also ARNO-catalysed exchange. The assay is classed as biochemical.

T1 sequence (Q8NDX1 whole entry): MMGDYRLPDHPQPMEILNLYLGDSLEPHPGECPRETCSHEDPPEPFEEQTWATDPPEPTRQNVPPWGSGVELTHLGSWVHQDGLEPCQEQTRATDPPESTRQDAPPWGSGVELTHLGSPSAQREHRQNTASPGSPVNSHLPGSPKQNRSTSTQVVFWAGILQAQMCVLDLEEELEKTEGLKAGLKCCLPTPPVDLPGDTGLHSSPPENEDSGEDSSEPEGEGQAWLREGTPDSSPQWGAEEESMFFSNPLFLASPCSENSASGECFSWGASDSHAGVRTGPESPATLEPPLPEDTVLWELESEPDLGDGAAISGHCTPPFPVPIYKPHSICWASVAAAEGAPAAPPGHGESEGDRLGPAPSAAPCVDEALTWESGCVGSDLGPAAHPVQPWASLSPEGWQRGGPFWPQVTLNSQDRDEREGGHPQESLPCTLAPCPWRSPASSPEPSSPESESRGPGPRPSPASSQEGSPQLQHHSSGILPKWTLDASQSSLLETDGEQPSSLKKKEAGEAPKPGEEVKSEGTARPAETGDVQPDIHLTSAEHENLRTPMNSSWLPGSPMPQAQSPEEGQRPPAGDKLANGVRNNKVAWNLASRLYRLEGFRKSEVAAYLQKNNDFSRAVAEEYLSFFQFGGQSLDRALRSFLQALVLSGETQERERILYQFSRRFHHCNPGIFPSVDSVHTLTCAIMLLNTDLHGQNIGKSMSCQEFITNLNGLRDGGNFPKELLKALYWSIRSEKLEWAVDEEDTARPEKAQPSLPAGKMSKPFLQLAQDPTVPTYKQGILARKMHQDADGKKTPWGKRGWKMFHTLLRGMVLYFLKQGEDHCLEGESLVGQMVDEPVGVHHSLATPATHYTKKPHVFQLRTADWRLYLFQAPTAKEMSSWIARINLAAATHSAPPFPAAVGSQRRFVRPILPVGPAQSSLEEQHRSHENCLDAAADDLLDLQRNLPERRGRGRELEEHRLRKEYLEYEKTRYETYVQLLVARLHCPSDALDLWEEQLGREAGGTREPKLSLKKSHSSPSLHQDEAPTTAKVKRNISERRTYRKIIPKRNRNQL
T1 sequence (P62330 2-175): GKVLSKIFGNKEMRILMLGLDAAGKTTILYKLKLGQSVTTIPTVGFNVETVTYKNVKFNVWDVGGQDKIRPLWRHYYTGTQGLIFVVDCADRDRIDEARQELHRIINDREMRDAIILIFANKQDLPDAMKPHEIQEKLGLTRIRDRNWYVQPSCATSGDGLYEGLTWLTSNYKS

As to `CN(C)[C@@H]1C(O)=C(C(N)=O)C(=O)[C@@]2(O)C(O)=C3C(=O)c4c(O)ccc(Cl)c4[C@@](C)(O)[C@H]3C[C@@H]12` [CTC, chlortetracycline], the IC50 on Arf6 was found to be 75 µM. The “spontaneous mant-GTP loading on purified myrArf1 with azolectin, 100 μM CTC; als” value on Arf1 is “CTC was able to strongly inhibit the spontaneous activation on the myristoylated forms of Arf6 (myrArf6) and Arf1 (myrArf1)”.
